This assay concerns the target Transcription factor Jun (Homo sapiens, UniProt P05412). As to the kind of experiment: Inhibition of AP1 expressed in HEK293T cells coexpressing beta-lactamase pre-incubated 1 hr before TPA addition measured 18 hrs post TPA challenge by fluorimetric assay.

Transcription factor Jun, sequence (P05412 whole entry): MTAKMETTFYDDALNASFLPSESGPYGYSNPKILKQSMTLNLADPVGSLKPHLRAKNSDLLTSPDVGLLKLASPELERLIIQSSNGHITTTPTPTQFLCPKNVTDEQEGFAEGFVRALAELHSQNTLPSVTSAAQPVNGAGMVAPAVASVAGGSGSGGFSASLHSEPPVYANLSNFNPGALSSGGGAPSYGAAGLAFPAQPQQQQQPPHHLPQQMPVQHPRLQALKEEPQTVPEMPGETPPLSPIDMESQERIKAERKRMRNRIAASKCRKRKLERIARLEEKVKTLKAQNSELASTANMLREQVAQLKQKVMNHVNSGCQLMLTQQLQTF

`CC[C@H]1NC(=O)[C@@H]2CSC(=N2)[C@@H](Cc2ccccc2)N(C)C(=O)[C@@H]2CCCN2C(=O)[C@H](C(C)C)N(C)C(=O)[C@H](Cc2ccccc2)OC(=O)[C@H](C)[C@@H](C)NC(=O)[C@@H](C(C)C)NC(=O)[C@@H](Cc2ccccc2)N(C)C(=O)[C@@H]2CSC1=N2` came in with a half-inhibitory concentration (IC50) of 5.2 µM. Compound `CC(C)[C@H]1C(=O)N2CCC[C@H]2C(=O)N(C)[C@H](Cc2ccccc2)C2=N[C@@H](CS2)C(=O)N[C@H](C)C2=N[C@@H](CS2)C(=O)N(C)[C@H](Cc2ccccc2)C(=O)N[C@H](C(C)C)C(=O)N[C@H](C)[C@@H](C)C(=O)O[C@@H](Cc2ccccc2)C(=O)N1C` yielded a 50% inhibitory concentration (IC50) of 6 µM.

What is called IC50 is the concentration that inhibits the measured activity by half.

Values taken from BindingDB's records for doi:10.1021/np2005083 (National Cancer Institute-Frederick, 2011).
